Measured values as given in patent publication US7820817B2, “Modulators of muscarinic receptors” (Vertex Pharmaceuticals Incorporated, priority 2004, dated 2010).

System: at least one muscarinic receptor, M1, M2, M3, M4
Assay: Muscarinic modulation activity (Table 3)
Format: cell-based
Parameters: key: +++: exhibited muscarinic modulation activity for at least one muscarinic receptor, M1, M2, M3, M4, at a concentration of less than 5 μM; ++: exhibited muscarinic modulation activity for at least one muscarinic receptor, M1, M2, M3, M4, at a concentration of between 30 μM and 5 μM; +: exhibited muscarinic modulation activity for at least one muscarinic receptor, M1, M2, M3, M4, at a concentration of greater than 30 μM; −: were not assayed or did not exhibit muscarinic modulation activity for at least one muscarinic receptor, M1, M2, M3, M4, at the concentration at which the assay was performed
Conditions: concentration at which modulation of at least one muscarinic receptor, M1, M2, M3, M4, was exhibited; CHO cells
Method in brief: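 CHO cells expressing M1–M5 loaded with Fluo-3 AM or Calcium 3 dye plus 1 mM probenecid; FLIPR fluorescence read for 60 sec after compound addition (agonist mode) or after 15 min pre-incubation then carbachol at EC80 (inhibition mode); 0.5% DMSO final.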

Compound | ACTIVITY (muscarinic modulation activity)
CCOC(=O)N1C2CCC1CC(N1CCN(c3ccncc3)CC1)C2 (stereo not drawn) [Compound 25, 3-[4-(4-pyridyl)piperazin-1-yl]-8-azabicyclo[3.2.1]octane-8-carboxylic acid ethyl ester] | +++ (exhibited muscarinic modulation activity for at least one muscarinic receptor, M1, M2, M3, M4, at a concentration of less than 5 μM)
c1cc(N2CCN(C3CCC4CCC3C4)CC2)ccn1 (stereo not drawn) [Compound 61, 1-(2-bicyclo[3.2.1]octyl)-4-(4-pyridyl)piperazine] | −
N#Cc1ccc(N2CCN(CC3CC4C=CC3C4)CC2)nc1 (stereo not drawn) [Compound 13, 6-[4-(5-bicyclo[2.2.1]hept-2-enylmethyl)piperazin-1-yl]nicotinonitrile] | +++ (exhibited muscarinic modulation activity for at least one muscarinic receptor, M1, M2, M3, M4, at a concentration of less than 5 μM)
N#Cc1cc(-c2ccccc2)nnc1N1CCN(CC2CC3CCC2C3)CC1 (stereo not drawn) [Compound 59, 3-[4-(norbornan-2-ylmethyl)piperazin-1-yl]-6-phenyl-pyridazine-4-carbonitrile] | + (exhibited muscarinic modulation activity for at least one muscarinic receptor, M1, M2, M3, M4, at a concentration of greater than 30 μM)
3-[4-(3-cyanopyrazin-2-yl)piperazin-1-yl]-8-azabicyclo[3.2.1]octane-8-carboxylic acid ethyl ester [Compound 45] | + (exhibited muscarinic modulation activity for at least one muscarinic receptor, M1, M2, M3, M4, at a concentration of greater than 30 μM)
CCOC(=O)N1C2CCC1CC(N1CCN(c3nc(Cl)cc(C(F)(F)F)c3C#N)CC1)C2 (stereo not drawn) [Compound 58, 3-[4-[6-chloro-3-cyano-4-(trifluoromethyl)-2-pyridyl]piperazin-1-yl]-8-azabicyclo[3.2.1]octane-8-carboxylic acid ethyl ester] | −
CCc1cnc(N2CCN(CC3CC4CCC3C4)CC2)nc1 (stereo not drawn) [Compound 22, 5-ethyl-2-[4-(norbornan-2-ylmethyl)piperazin-1-yl]-pyrimidine] | −
CCOC(=O)N1C2CCC1CC(N1CCN(c3ncccc3F)CC1)C2 (stereo not drawn) [Compound 30, 3-[4-(3-fluoro-2-pyridyl)piperazin-1-yl]-8-azabicyclo[3.2.1]octane-8-carboxylic acid ethyl ester] | +++ (exhibited muscarinic modulation activity for at least one muscarinic receptor, M1, M2, M3, M4, at a concentration of less than 5 μM)
Clc1cncc(Cl)c1N1CCN(CC2CC3C=CC2C3)CC1 (stereo not drawn) [Compound 26, 1-(5-bicyclo[2.2.1]hept-2-enylmethyl)-4-(3,5-dichloro-4-pyridyl)-piperazine] | −
N#Cc1cccnc1N1CCN(C2CC3CCC(C3)C2)CC1 (stereo not drawn) [Compound 27, 2-[4-(3-bicyclo[3.2.1]octyl)piperazin-1-yl]nicotinonitrile] | + (exhibited muscarinic modulation activity for at least one muscarinic receptor, M1, M2, M3, M4, at a concentration of greater than 30 μM)
CCOC(=O)N1C2CCC1CC(N1CCN(c3nc(C)cc(C)c3C#N)CC1)C2 (stereo not drawn) [Compound 78, 3-[4-(3-cyano-4,6-dimethyl-2-pyridyl)piperazin-1-yl]-8-azabicyclo[3.2.1]octane-8-carboxylic acid ethyl ester] | ++ (exhibited muscarinic modulation activity for at least one muscarinic receptor, M1, M2, M3, M4, at a concentration of between 30 μM and 5 μM)
CCOC(=O)N1C2CCC1CC(CN1CCN(c3ncccc3C#N)CC1)C2 (stereo not drawn) [Compound 68, 3-[[4-(3-cyano-2-pyridyl)piperazin-1-yl]methyl]-8-azabicyclo[3.2.1]octane-8-carboxylic acid ethyl ester] | +++ (exhibited muscarinic modulation activity for at least one muscarinic receptor, M1, M2, M3, M4, at a concentration of less than 5 μM)
